# Reference: publication PMC8553829, “Improvement of a synthetic live bacterial therapeutic for phenylketonuria with biosensor-enabled enzyme engineering” (Nature Communications, 2021)
# Target: T1, StlA (PAL, phenylalanine ammonia lyase) (Photorhabdus laumondii, UniProt Q7N4T3)
# T1 construct: gene plu2234; full-length, untagged; aTc-inducible low-copy plasmid in E. coli Nissle 1917; soluble cell lysate
# T1 sequence (Q7N4T3 1-532): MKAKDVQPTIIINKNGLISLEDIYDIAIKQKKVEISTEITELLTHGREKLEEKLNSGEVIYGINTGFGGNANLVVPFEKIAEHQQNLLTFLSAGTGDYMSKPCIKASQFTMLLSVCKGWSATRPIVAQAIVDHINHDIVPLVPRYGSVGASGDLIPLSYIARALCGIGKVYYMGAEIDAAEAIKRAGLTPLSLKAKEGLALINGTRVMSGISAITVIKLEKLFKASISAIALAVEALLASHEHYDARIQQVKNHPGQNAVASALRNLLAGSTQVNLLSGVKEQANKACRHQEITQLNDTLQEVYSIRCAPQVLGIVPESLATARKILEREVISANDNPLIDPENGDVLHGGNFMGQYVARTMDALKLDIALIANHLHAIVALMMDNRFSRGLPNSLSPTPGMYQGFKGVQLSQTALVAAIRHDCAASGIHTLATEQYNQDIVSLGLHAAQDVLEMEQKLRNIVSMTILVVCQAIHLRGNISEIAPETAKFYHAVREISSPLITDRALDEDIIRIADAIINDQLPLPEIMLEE
# Experiment: TCA formation followed at A290, nonlinear Michaelis-Menten fit
# Format: biochemical
# Conditions: soluble lysate of E. coli Nissle (EP2315), 10 µg total protein per well; M9 0.5% glucose, 37 °C
# Description: TCA formation followed at A290, nonlinear Michaelis-Menten fit on StlA (PAL, phenylalanine ammonia lyase)
compound,measurement,value
N[C@@H](Cc1ccccc1)C(=O)O [Phe],KM (mM Phe),1.69 ± 0.37 mM
